The source of these data is ChEMBL document CHEMBL1201862, “PubChem BioAssay data set” (2004).

Structures are written as SMILES.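 Interpolation was linear, between the two tested concentrations surrounding the appropriate level; five concentrations were tested over 48 hours in 96-well plates. GI50 marks 50% less growth.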 Calls of active or inactive are those of the source. No stated cut-off is given here; in the data, active = GI50 up to about 1.1 µM and inactive = higher. Some results are limits rather than exact numbers.

Holding throughout (assay): NCI anticancer screen, dose series, 48 h
Assay [1] concerns A498.
In assay [2] the test system is HOP-62.
Assay [3] deals with HT-29.
The subject of assay [4] is IGROV-1.
For assay [5], the system named is K562.
Assay [6] relates to KM12.
The subject of assay [7] is MDA-N.
In assay [8] the test system is NCI-H522.
The test system of assay [9] is OVCAR-5.
The test system of assay [10] is OVCAR-8.
The subject of assay [11] is PC-3.
The test system of assay [12] is RPMI-8226.
Assay [13] deals with RXF 393.
In assay [14] the test system is SK-MEL-2.
In assay [15] the test system is SK-OV-3.
Assay [16] concerns SR.
In assay [17] the test system is UACC-257.
In assay [18] the test system is UO-31.
Assay [19] deals with NCI-H460.

For the molecule `CC(=O)Nc1ccc(-c2nc3ccccc3s2)cc1Cl`, the GI50 in assay [1] is 5.68 µM (inactive); in assay [2] it was 22.7 µM (inactive); in assay [3], > 95.5 µM (inactive); in assay [4], < 0.0217 µM (active); in assay [5], > 100 µM (inactive); in [6], 57.4 µM (inactive). Also, the GI50 in assay [7] was > 100 µM (inactive); in assay [8], 54.5 µM (inactive); in assay [9] it was 0.171 µM (active); in assay [10] it was 66.5 µM (inactive); in assay [11], > 100 µM (inactive); in assay [12], > 100 µM (inactive). Further, the GI50 in assay [13] is 26.5 µM (inactive); in assay [14], > 100 µM (inactive); in assay [15], 40.6 µM (inactive); in assay [16], > 100 µM (inactive); in assay [17], > 41.1 µM (inactive); in assay [18] it was 27.7 µM (inactive).
With `COc1ccccc1CC(=O)C(O)(C(F)(F)F)C(F)(F)F`, the GI50 in assay [1], in assay [2], in assay [3], in [4], in assay [5] and in assay [6] was > 100 µM (inactive) in each case. For the same molecule, the GI50 in assay [7], in assay [19], in assay [8], in [9], in assay [10] and in assay [11] was > 100 µM (inactive) in each case. For the same molecule, the GI50 in assay [12], in [13], in [14], in [15], in assay [16] and in assay [17] was > 100 µM (inactive) throughout. For the same molecule, the GI50 in assay [18] is > 100 µM (inactive).
Turning to `N#CC(C#N)=CNC(=S)c1ccncc1`, the GI50 in assay [1] is 92.9 µM (inactive); in assay [2] it was > 100 µM (inactive); in assay [3] it was 46.9 µM (inactive); in assay [4], 69.5 µM (inactive); in [5] it was 39.1 µM (inactive); in assay [6], > 100 µM (inactive). For the same molecule, the GI50 in assay [7] is > 100 µM (inactive); in assay [19], > 100 µM (inactive); in assay [8], 21.9 µM (inactive); in assay [9], > 100 µM (inactive); in [10], > 100 µM (inactive); in assay [11], > 100 µM (inactive). The GI50 was 36.9 µM (inactive) in [12]; > 100 µM (inactive) in assay [13]; > 100 µM (inactive) in assay [14]; > 100 µM (inactive) in assay [15]; 18.7 µM (inactive) in assay [16]; > 100 µM (inactive) in assay [17]. Moreover, the GI50 in assay [18] was 5.6 µM (inactive).
`OC1COC(n2c3ccc(Br)cc3c3ccc4c5ccccc5[nH]c4c32)C(O)C1O` (stereo not drawn): the GI50 was 4.3 µM (inactive) in assay [1]; 3.64 µM (inactive) in assay [2]; 3.15 µM (inactive) in assay [3]; 1.21 µM (inactive) in assay [4]; 2.29 µM (inactive) in assay [5]; 1.56 µM (inactive) in assay [6]. For the same molecule, the GI50 in assay [7] was 4.4 µM (inactive); in assay [19], 2.58 µM (inactive); in assay [8], 2.82 µM (inactive); in assay [9], 2.92 µM (inactive); in [10], 3.65 µM (inactive); in assay [11], 2.21 µM (inactive). Further, the GI50 in assay [12] was 3.52 µM (inactive); in assay [13], 1.76 µM (inactive); in [14] it was 0.658 µM (active); in assay [15], 0.832 µM (active); in assay [16], 3.67 µM (inactive); in assay [17], 5.21 µM (inactive). For the same molecule, the GI50 in [18] was 2.82 µM (inactive).
Regarding `Clc1nc(-c2ccccc2)nc(Cl)c1Cl`, the GI50 in assay [1] was 17.6 µM (inactive); in assay [2], 18 µM (inactive); in [3], 9.89 µM (inactive); in assay [4] it was 8.69 µM (inactive); in assay [5], 3.76 µM (inactive); in assay [6], 11.6 µM (inactive). The GI50 in assay [7] was 13 µM (inactive); in assay [19] it was 18.7 µM (inactive); in [8] it was 3.21 µM (inactive); in [9], 15.8 µM (inactive); in [10] it was 14.6 µM (inactive); in assay [11] it was 11.8 µM (inactive). The GI50 in [12] is 4.29 µM (inactive); in [13] it was 7.85 µM (inactive); in assay [15], 14 µM (inactive); in assay [16], 2.69 µM (inactive); in [17], 14.6 µM (inactive); in [18], 40.8 µM (inactive).
Take `COc1ccc(OC)c(N2C(=O)/C(=C\c3ccccc3)SC2c2cc(OC)c(OC)c(OC)c2)c1` (stereo not drawn): the GI50 is 51.5 µM (inactive) in assay [1]; > 100 µM (inactive) in assay [2]; > 87.3 µM (inactive) in [3]; 29.8 µM (inactive) in assay [4]; 50.9 µM (inactive) in assay [5]; 61.5 µM (inactive) in assay [6]. Also, the GI50 was 22 µM (inactive) in [7]; 30.9 µM (inactive) in assay [8]; > 93.3 µM (inactive) in assay [9]; > 100 µM (inactive) in assay [10]; > 89.5 µM (inactive) in assay [11]; 71.4 µM (inactive) in [12]. The GI50 is 11.6 µM (inactive) in assay [13]; > 100 µM (inactive) in assay [14]; > 100 µM (inactive) in assay [15]; 33.7 µM (inactive) in assay [16]; > 100 µM (inactive) in [17]; > 89.7 µM (inactive) in [18].
As for `COC(=O)CCC(=O)c1ccc2c(c1)CC1(C2)Cc2ccc(C(=O)CCC(=O)OC)cc2C1`, the GI50 in assay [1] was 45 µM (inactive); in [2], 43.5 µM (inactive); in assay [3], > 100 µM (inactive); in assay [4], > 100 µM (inactive); in [5], 29.9 µM (inactive); in [6], > 100 µM (inactive). For the same molecule, the GI50 is 73.1 µM (inactive) in [7]; 55.1 µM (inactive) in [8]; > 100 µM (inactive) in assay [9]; 73.6 µM (inactive) in assay [10]; 39.8 µM (inactive) in assay [11]; 35.2 µM (inactive) in assay [12]. Moreover, the GI50 is > 100 µM (inactive) in assay [13]; 0.61 µM (active) in [14]; 67 µM (inactive) in assay [15]; 17 µM (inactive) in assay [16]; 85.1 µM (inactive) in [17]; 30.5 µM (inactive) in assay [18].
In the case of `COc1ccc(NC(=O)C2=C(SC)C(C#N)C(=O)N=C2N)cc1` (stereo not drawn), the GI50 in assay [1] was > 100 µM (inactive); in assay [2], > 100 µM (inactive); in assay [3] it was > 100 µM (inactive); in [4], 20.3 µM (inactive); in assay [5], 54.3 µM (inactive); in assay [6], 0.369 µM (active). Besides, the GI50 in assay [7] was > 100 µM (inactive); in [19], > 100 µM (inactive); in assay [8], 15.1 µM (inactive); in assay [9], > 100 µM (inactive); in assay [11], > 100 µM (inactive); in [12], > 100 µM (inactive). In addition, the GI50 is > 100 µM (inactive) in assay [13]; > 100 µM (inactive) in [14]; > 100 µM (inactive) in assay [15]; > 100 µM (inactive) in [16]; > 100 µM (inactive) in assay [17]; 72.1 µM (inactive) in assay [18].
With `COc1ccc(-n2c(C)nc3ccc(NC4OC(CO)C(O)C(O)C4O)cc3c2=O)cc1` (stereo not drawn), the GI50 in assay [1], in assay [2], in assay [3], in assay [4], in [5] and in [6] was > 100 µM (inactive) in each case. Besides, the GI50 in assay [7], in assay [19], in assay [8], in assay [9], in assay [10] and in [11] was > 100 µM (inactive) each time. In addition, the GI50 in [12] is > 100 µM (inactive); in assay [13] it was > 100 µM (inactive); in assay [14] it was 97.5 µM (inactive); in assay [16], > 100 µM (inactive); in assay [17] it was > 100 µM (inactive); in assay [18], > 100 µM (inactive).
As to `CC(C)(C)c1ccc(-c2nc3ccc(Cl)cc3c(=O)o2)cc1`, the GI50 in assay [1] is 23.4 µM (inactive); in assay [2] it was 20.9 µM (inactive); in assay [3], 23.1 µM (inactive); in assay [4], 18.2 µM (inactive); in assay [5], 15.8 µM (inactive); in assay [6] it was 5.12 µM (inactive). Besides, the GI50 was 25.2 µM (inactive) in assay [7]; 26.2 µM (inactive) in assay [19]; 12.7 µM (inactive) in assay [8]; 25.1 µM (inactive) in assay [9]; 14.5 µM (inactive) in assay [10]; 21.5 µM (inactive) in assay [11]. For the same molecule, the GI50 in [12] was 19.6 µM (inactive); in [13], 39.1 µM (inactive); in [14], 18.5 µM (inactive); in assay [15], 18.4 µM (inactive); in assay [16], 16.4 µM (inactive); in assay [17], 31.2 µM (inactive). In addition, the GI50 in assay [18] was 21.2 µM (inactive).
As for `COc1cc2c(cc1OC)C(OC)N(C)c1c-2ccc2cc3c(cc12)OCO3` (stereo not drawn), the GI50 in assay [1] is 0.458 µM (active); in assay [2], 1.4 µM (inactive); in assay [3], 1.38 µM (inactive); in assay [4], 0.805 µM (active); in [5] it was 1.75 µM (inactive); in [6], 0.839 µM (active). Also, the GI50 in assay [7] was 13.6 µM (inactive); in assay [19], 0.486 µM (active); in [8], 0.152 µM (active); in [9], 1.42 µM (inactive); in assay [10], 1.72 µM (inactive); in assay [11], 1.33 µM (inactive). Further, the GI50 in assay [12] is 1.47 µM (inactive); in assay [13], 1.91 µM (inactive); in assay [14], 1.98 µM (inactive); in assay [15], 0.916 µM (active); in assay [16], 0.506 µM (active); in assay [17] it was 12.1 µM (inactive). For the same molecule, the GI50 in assay [18] was 18.1 µM (inactive).
